The source of these data is patent publication US9676725B2, “S-crystal form of ivabradine hydrochloride, and preparation method and pharmaceutical composition thereof” (Beijing Lunarsun Pharmaceutical Co., LTD., priority 2014, dated 2017).

The structures appear in SMILES notation.

What all share (format): physicochemical
Series [1] is described as follows: High-temperature stability test at 60° C. Conditions: for Content / Properties / Relevant substances: Max single impurity / Relevant substances: Total impurities: 60° C. From the text: Thus, the product could be stored stably in storehouse at room temperature.
The nature of series [2]: Humidity stability test (moisture and XRD). The following applies: for Moisture: open, humidity 43.1±0.5%, room temperature (20° C.); for Change of crystal form on water absorption: stored in open condition under humidity 43.1±0.5%, water content up to 3%, hydrochloride. As to the method:
The S crystal form of ivabradine hydrochloride as prepared in Example 2 was spread on watch glass to form a thin layer and placed in the upper part of a desiccator, and saturated potassium carbonate solution was placed in the lower part of the desiccator, the humidity in the desiccator was detected (humidity: 43.1±0.5%), conditions were controlled at room temperature (20° C.) and constant humidity, and samples were taken at 1 h, 8 h, 16 h, 24 h, 48 h, 96 h for moisture and XRD tests, and the results are shown in the following table.

Series [3] is described as follows: Storage of crystal form at room temperature (crystal form transformation). The following applies: 10 days storage at room temperature. An excerpt: Although many crystal forms have been reported in the documents, their stability and preparation methods are not satisfied. […] Delta crystal form contains acetonitrile which can hardly be removed, and it is difficult to distinguish from acetonitrile-containing crystal form. In addition, ivabradine hydrochloride as a hydrochloride is very easy to absorb moisture, while the change of water content may result in changes of many crystal forms, for example, the change between γd and γ, the change between βd and β.

Turning to `COc1cc2c(cc1OC)CC(=O)N(CCCN(C)C[C@H]1Cc3cc(OC)c(OC)cc31)CC2.Cl` [3-{3-[{[(7S)-3,4-dimethoxybicyclo[4.2.0]octa-1,3,5-trien-7-yl]-methyl}(methyl)-amino]propyl}-7,8-dimethoxy-1,3,4,5-tetrahydro-2H-3-benzazepin-2-one hydrochloride], the Content came to 99.50% in series [1] (the 0th day), 99.40% in series [1] (the 5th day) and 99.50% in series [1] (the 10th day). The Properties entry in series [1] (the 0th day), in series [1] (the 5th day) and in series [1] (the 10th day) was “White” in each case. Besides, the entries for the “Relevant substances: Max single impurity” value in series [1] (the 0th day), in series [1] (the 5th day) and in series [1] (the 10th day) were 0.04%, 0.05% and 0.05%, respectively. Further, the results for the “Relevant substances: Total impurities” value in series [1] (the 0th day), in series [1] (the 5th day) and in series [1] (the 10th day) were 0.19%, 0.20% and 0.20%, respectively. For the same compound, the “Change of indicators, e.g. purity, versus the 0th day” value in series [1] (stored at 60° C. for 10 days) was “did not change significantly”. The “Stability of crystal form” value in series [1] (stored at 60° C. for 10 days) is given as “very stable”. Moreover, the Moisture in series [2] (1 h) came to 0.46%; in series [2] (8 h), 0.55%; in series [2] (16 h), 0.60%; in series [2] (24 h), 0.82%; in series [2] (48 h), 1.4%; in series [2] (96 h), 3.0%. The “Change of crystal form on water absorption” value is “does not change” in series [2] (listed as S crystal form) and “did not change” in series [2] (listed as the product).
Turning to `COc1cc2c(cc1OC)CC(=O)N(CCCN(C)C[C@H]1Cc3cc(OC)c(OC)cc31)CC2.Cl` [δd crystal form, 3-{3-[{[(7S)-3,4-dimethoxybicyclo[4.2.0]octa-1,3,5-trien-7-yl]-methyl}(methyl)-amino]propyl}-7,8-dimethoxy-1,3,4,5-tetrahydro-2H-3-benzazepin-2-one hydrochloride], in series [3], the “Crystal form transformation on storage” value is reported as “most of the δd crystal form will transform into α crystal form”.
